Literature values as cited in publication PMC3518266 (Chemistry & biology, 2010).

Target: hevamine
Conditions: competitive inhibition of hevamine; ref Vaaje-Kolstad et al., 2004; cited from earlier work

CC(=O)N[C@H]1[C@H](O[C@H]2[C@@H](O)[C@@H](NC(C)=O)[C@H](O[C@H]3[C@H](O)[C@H]4N=C(N(C)C)O[C@H]4[C@@H]3CO)O[C@@H]2CO)O[C@H](CO)[C@@H](O)[C@H]1O [allosamidin]
Ki: 3.1 µM
